We go through 17 compounds from paper PMC6692079 (Journal of medicinal chemistry, 2018).

“Also recorded” adds a separate entry of the source. Counter-ions that a name gives are not always drawn. Like-named read-outs stand apart in the source and are kept apart here.

For data set [1] the following is noted: 5 mg/kg in male rats, cited from earlier work.
Data set [2] deals with T1, human κ opioid receptor (Homo sapiens, UniProt P41145). Kind of data set: biochemical. The note with it: for δ/κ: selectivity for κ relative to δ. It counts as biochemical.
T1 sequence (P41145 whole entry): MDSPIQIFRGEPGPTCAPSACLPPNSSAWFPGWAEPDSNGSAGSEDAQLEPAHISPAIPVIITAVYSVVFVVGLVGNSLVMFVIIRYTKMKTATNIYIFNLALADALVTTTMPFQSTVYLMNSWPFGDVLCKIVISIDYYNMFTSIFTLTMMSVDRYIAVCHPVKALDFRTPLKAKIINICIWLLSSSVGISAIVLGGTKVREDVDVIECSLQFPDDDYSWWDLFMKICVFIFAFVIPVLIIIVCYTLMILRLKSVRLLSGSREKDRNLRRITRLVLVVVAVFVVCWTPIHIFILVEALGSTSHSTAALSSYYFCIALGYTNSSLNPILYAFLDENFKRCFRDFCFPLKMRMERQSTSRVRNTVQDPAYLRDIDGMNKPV
For data set [3], the target named is T1, human κ opioid receptor. The note with it: cloned human receptor, cited from earlier work.
In data set [4] the target is T2, human δ opioid receptor (Homo sapiens, UniProt P41143). The note with it: cloned human receptor, cited from earlier work.
T2 sequence (P41143 whole entry): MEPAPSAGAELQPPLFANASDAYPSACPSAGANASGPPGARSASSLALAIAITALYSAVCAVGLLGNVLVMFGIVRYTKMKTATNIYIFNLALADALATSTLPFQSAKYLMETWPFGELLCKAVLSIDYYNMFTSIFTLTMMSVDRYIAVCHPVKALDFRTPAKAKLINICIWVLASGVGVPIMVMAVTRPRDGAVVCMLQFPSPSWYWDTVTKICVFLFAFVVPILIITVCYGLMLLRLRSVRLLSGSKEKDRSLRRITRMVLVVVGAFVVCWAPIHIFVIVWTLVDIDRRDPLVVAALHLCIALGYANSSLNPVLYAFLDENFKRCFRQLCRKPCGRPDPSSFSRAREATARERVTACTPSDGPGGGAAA
The target in data set [5] is T3, human μ opioid receptor (Homo sapiens, UniProt P35372). The following applies: cloned human receptor; cited from earlier work.
T3 sequence (P35372 whole entry): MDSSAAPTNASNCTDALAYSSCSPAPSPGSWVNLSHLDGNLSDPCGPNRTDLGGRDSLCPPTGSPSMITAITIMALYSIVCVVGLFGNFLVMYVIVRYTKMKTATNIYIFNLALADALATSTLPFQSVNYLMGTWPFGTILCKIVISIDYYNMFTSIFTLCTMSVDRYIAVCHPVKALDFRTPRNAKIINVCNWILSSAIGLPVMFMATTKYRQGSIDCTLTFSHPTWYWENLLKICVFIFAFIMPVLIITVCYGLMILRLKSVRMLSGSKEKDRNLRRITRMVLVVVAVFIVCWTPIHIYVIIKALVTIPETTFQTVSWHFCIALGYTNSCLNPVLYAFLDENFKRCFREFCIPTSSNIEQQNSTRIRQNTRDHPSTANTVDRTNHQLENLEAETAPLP
Data set [6] can be described thus: Pharmacokinetics in plasma and brain after a single sc dose. Format: in vivo, Male Sprague—Dawley rats. The following applies: 5 mg/kg sc.
For data set [7], the target named is T2, human δ opioid receptor. The data set can be described thus: biochemical.
For data set [8], the target named is T3, human μ opioid receptor. The data set can be described thus: biochemical.

Take `CC(C)[C@@H](CN1CC[C@@](C)(c2cccc(O)c2)[C@@H](C)C1)NC(=O)[C@H]1Cc2ccc(O)cc2CN1` [JDTic, (3R)-1,2,3,4-tetrahydro-7-hydroxy-N-[(1S)-1-[[(3R,4R)-4-(3-hydroxy-phenyl)-3,4-dimethyl-1-piperidinyl]methyl]-2-methylpropyl]-3-iso-quinolinecarboxamide]: the half-life (in general, the time in which the quantity being followed falls by half) in data set [1] (brain) is on record as 51.8 h; in data set [1] (plasma), 28.4 h.

`CC(C)[C@@H](CN1CCC(C)(C)CC1)NC(=O)[C@H]1Cc2ccc(O)cc2CN1` [Compound 18, (3R)-N-{(1S)-1-[(4,4-Dimethylpiperidin-1-yl)methyl]-2-methylpropyl}−7-hydroxy-1,2,3,4-tetrahydroisoquinoline-3-carboxamide Dihydrochloride] gave a Kb at human κ opioid receptor [2] of 0.00357 ± 0.0015 µM.

Take `CC(C)[C@@H](CN1CC[C@@](C)(c2cccc(O)c2)[C@@H](C)C1)NC(=O)[C@H]1Cc2ccc(O)cc2CN1C` [Compound 46, reference compound]: the “Ke κ, U69,593” value on human κ opioid receptor [3] is 0.16 ± 0.06 nM. Moreover, the “Ke δ, DPDPE” value on human δ opioid receptor [4] is 491 ± 120 nM. At human μ opioid receptor [5], the “Ke μ, DAMGO” value was 210 ± 60 nM.

On to `CC1CCN(C[C@@H](NC(=O)[C@H]2Cc3ccc(O)cc3CN2)C(C)C)CC1` [Compound 12, (3R)-7-Hydroxy-N-{(1S)-2-methyl-1-[(4-methylpiperidin-1-yl)-methyl]propyl}−1,2,3,4-tetrahydroisoquinoline-3-carboxamide Dihydrochloride], for which the “persistence in plasma and brain post dose” value in data set [6] (last sampling time) was found to be 168 h. Besides, in data set [6] (plasma), the clearance came out at 43.75 mL/min/kg. Further, the brain penetration entry in data set [6] (rats, 5 mg/kg) is reported as “does indeed penetrate the brain; also recorded: crossed the blood—brain barrier; also recorded: did indeed readily penetrate the brain”. This compound also displayed a Kb on human δ opioid receptor [7] above 3 µM.

Regarding `CC(C)[C@@H](CN1CCCCC1)NC(=O)[C@H]1Cc2ccc(O)cc2CN1` [Compound 1, (3R)‑7-Hydroxy‑N‑[(1S)‑2-methyl-1-(piperidin-1-ylmethyl)propyl]-1,2,3,4-tetrahydroisoquinoline-3-carboxamide], at human κ opioid receptor [3] (previously reported), the “Ke κ, U69,593” value is 6.80 ± 2.1 nM. For the same compound, the “Ke δ, DPDPE” value at human δ opioid receptor [4] (previously reported) is listed as above 3000 nM.

As for `CC(C)[C@@H](CN1CCN(C)CC1)NC(=O)[C@H]1Cc2ccc(O)cc2CN1` [Compound 7, (3R)-7-Hydroxy-N-{(1S)-2-methyl-1-[(4-methylpiperizin-1-yl)-methyl]propyl}−1,2,3,4-tetrahydroisoquinoline-3-carboxamide Trihydrochloride], at human κ opioid receptor [2] (ratio of Ke values), the δ/κ was above 30. The compound also had a Kb on human δ opioid receptor [7] above 3 µM.

Compound `CC(C)[C@@H](CN1CCOCC1)NC(=O)[C@H]1Cc2ccc(O)cc2CN1` [Compound 6, (3R)-7-Hydroxy-N-[(1S)-2-methyl-1-(morpholin-4-ylmethyl)-propyl]-1,2,3,4-tetrahydroisoquinoline-3-carboxamide Dihydrochloride] came in with a Kb at human δ opioid receptor [7] above 3 µM.

Consider `CC(C)[C@@H](CN1CCCCC1C)NC(=O)[C@H]1Cc2ccc(O)cc2CN1` (mixture of isomers) [Compound 14, (3R)-7-Hydroxy-N-{(1S)-2-methyl-1-[((2RS)-2-methylpiperidin-1-yl)methyl]propyl}−1,2,3,4-tetrahydroisoquinoline-3-carboxamide Dihydrochloride], for which the δ/κ on human κ opioid receptor [2] (ratio of Ke values) is above 199. In addition, at human δ opioid receptor [7], the Kb was above 3 µM.

As for `CC(C)[C@@H](CN1CCC(N(C)C)CC1)NC(=O)[C@H]1Cc2ccc(O)cc2CN1` [Compound 23, (3R)-N-[(1S)-1-{[4-(Dimethylamino)piperidin-1-yl]methyl}−2-methylpropyl]-7-hydroxy-1,2,3,4-tetrahydroisoquinoline-3-carboxamide Trihydrochloride], the δ/κ at human κ opioid receptor [2] (ratio of Ke values) is above 371. Also, the Kb on human δ opioid receptor [7] was above 3 µM.

`CC(C)[C@@H](CN1CCC(C(N)=O)CC1)NC(=O)[C@H]1Cc2ccc(O)cc2CN1` [Compound 26]: the δ/κ at human κ opioid receptor [2] (ratio of Ke values) was above 932. Also, the Kb on human δ opioid receptor [7] is above 3 µM.

Take `CCN(CC)C[C@@H](NC(=O)[C@H]1Cc2ccc(O)cc2CN1)C(C)C` [Compound 8, (3R)-N-{(1S)-1-[(4,4-Diethylamino)methyl]-2-methylpropyl]-7-hydroxy-1,2,3,4-tetrahydroisoquinoline-3-carboxamide Dihydrochloride]: the Kb on human κ opioid receptor [2] was 0.0418 ± 0.012 µM; on human δ opioid receptor [7] it was above 3 µM; on human μ opioid receptor [8], 0.69 ± 0.11 µM. Further, the δ/κ at human κ opioid receptor [2] (ratio of Ke values) is above 72.

On to `CC(C)CN(CC(C)C)C[C@@H](NC(=O)[C@H]1Cc2ccc(O)cc2CN1)C(C)C` [Compound 10, (3R)-N-{(1S)-1-{[Bis(2-methylpropyl)amino]methyl}−2-methyl-propyl]-7-hydroxy-1,2,3,4-tetrahydroisoquinoline-3-carboxamide Dihydrochloride], for which, at human δ opioid receptor [7], the Kb was above 3 µM.

For `CC(C)[C@@H](CN1CCC(C(F)(F)F)CC1)NC(=O)[C@H]1Cc2ccc(O)cc2CN1` [Compound 20, (3R)-7-Hydroxy-N-[(1S)-2-methyl-1-{[4-(trifluoromethyl)-piperidin-1-yl]methyl}propyl]-1,2,3,4-tetrahydroisoquinoline-3-carboxamide Dihydrochloride], the δ/κ on human κ opioid receptor [2] (ratio of Ke values) is given as above 640. At human δ opioid receptor [7], this compound showed a Kb above 3 µM.

With `COC1CCN(C[C@@H](NC(=O)[C@H]2Cc3ccc(O)cc3CN2)C(C)C)CC1` [Compound 22, (3R)-7-Hydroxy-N-{(1S)-2-methyl-1-[(4-methoxypiperidin-1-yl)-methyl]propyl}−1,2,3,4-tetrahydroisoquinoline-3-carboxamide Dihydrochloride], the δ/κ at human κ opioid receptor [2] (ratio of Ke values) is recorded as above 459. The Kb on human δ opioid receptor [7] was above 3 µM.

As to `CC(C)[C@@H](CN1CCC(F)(F)CC1)NC(=O)[C@H]1Cc2ccc(O)cc2CN1` [Compound 24, (3R)-N-{[(1S)-1-[4,4-Difluoropiperidin-1-yl]methyl]-2-methyl-propyl}−7-hydroxy-1,2,3,4-tetrahydroisoquinoline-3-carboxamide Dihydrochloride], the δ/κ on human κ opioid receptor [2] (ratio of Ke values) is above 254. Also, the Kb at human δ opioid receptor [7] was above 3 µM.

As to `CC1CCN(C[C@@H](NC(=O)[C@H](N)Cc2ccc(O)cc2)C(C)C)CC1` [Compound 36, N-{(1S)-2-Methyl-1-[(4-methylpiperidin-1-yl)methyl]propyl}-D-ty-rosinamide Dihydrochloride], the Kb on human κ opioid receptor [2] was 0.387 ± 0.089 µM; on human δ opioid receptor [7], above 3 µM; at human μ opioid receptor [8] it was above 3 µM. For the same compound, on human κ opioid receptor [2], the “fold loss in κ opioid receptor antagonist potency relative to 12” value was “over 1000”. Further, at human κ opioid receptor [2] (ratio of Ke values), the δ/κ is above 8. The μ/κ at human κ opioid receptor [2] (ratio of Ke values, selectivity for κ relative to μ) was above 8.

Turning to `CC(C)[C@@H](CN1CCC(C#N)CC1)NC(=O)[C@H]1Cc2ccc(O)cc2CN1` [Compound 25, (3R)-N-{(1S)-1-[(4-Cyanopiperidin-1-yl)methyl]-2-methylprolyl}−7-hydroxy-1,2,3,4-tetrahydroisoquinoline-3-carboxamide Dihydrochloride], at human κ opioid receptor [2] (ratio of Ke values), the δ/κ was above 236. Moreover, on human δ opioid receptor [7], the Kb was above 3 µM.
